# Assay results: patent US4577020A, “Aminoalkyl and aminoalkenyl triazoles as anti-psychotic agents” (The Upjohn Company, priority 1983, dated 1986)
# Legend:
# [1] = target: T1, ^3 H-spiroperidol binding (Mus musculus, UniProt P61168); experiment: In vivo spiroperidol binding assay
# T1 construct: from tissue; host or cells: brain of ICR mice: striata, septum, most of the olfactory tubercles, small part of ventral cortex (in vivo labelling)
# Method: D. In vivo spiroperidol Binding Assay
# ICR strain mice, weighing about 20 gm, are given the test drugs or vehicle, i.p. or s.c., in 0.10 ml. Drug solutions are in saline, 0.1M citric acid, or 33% propylene glycol. After 1 hour, mice are given 66 micro-Curies (μCi)/kg of ^3 H-spiroperidol (specific activity […]) i.v. in 0.10 ml of saline. Four to 6 mice are given each test drug, and 4 of those which are successfully i.v. injected with the label are used for the rest of the experiment. At 3 hours (2 hours after the ^3 H-spiroperidol injection), the mice are sacrificed and the brains rapidly dissected. A section of brain tissue including the striata, septum, most of the olfactory tuberoles, and a small associated portion of the ventral edge of the cortex, is removed to dry ice. The tissues are weighed (usually 60-70 mg) and then dissolved in 1.0 ml of Protosol (New England Nuclear) overnight at about 40° C. The solutions are then neutralized with 80 μl of 6N HCl or 200 μl of 2.4N HCl, 15 ml of ACS counting solution (Amersham) is added, and the samples are counted by liquid scintillation spectroscopy. The amount of bound ^3 H-spiroperiodol, in cpm/mg tissue, is calculated for each test group and compared to the control group using the two-tailed Student's t test.
# Of these tests, the in vivo spiroperidol binding assay is the most important indicator of antipsychotic activity. […]
# [2] = standard laboratory test which indicates analgesic activity
# From the text: However, the preferred use of the compounds of this invention is as anti-psychotic agents.
# T1 sequence (P61168 whole entry): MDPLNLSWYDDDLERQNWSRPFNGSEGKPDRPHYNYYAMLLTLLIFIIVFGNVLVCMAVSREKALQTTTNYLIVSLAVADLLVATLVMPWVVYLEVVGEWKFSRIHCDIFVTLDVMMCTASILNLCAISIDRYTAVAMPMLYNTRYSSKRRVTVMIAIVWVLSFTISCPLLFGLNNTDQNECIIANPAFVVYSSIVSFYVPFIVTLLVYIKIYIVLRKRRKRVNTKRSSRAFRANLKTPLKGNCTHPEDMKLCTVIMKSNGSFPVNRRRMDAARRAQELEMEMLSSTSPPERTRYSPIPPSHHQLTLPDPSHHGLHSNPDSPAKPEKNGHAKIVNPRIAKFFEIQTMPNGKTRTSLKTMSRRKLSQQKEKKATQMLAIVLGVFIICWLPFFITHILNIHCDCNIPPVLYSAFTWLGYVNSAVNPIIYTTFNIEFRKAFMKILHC
SMILES,effectiveness in the in vivo spiroperidol binding assay (in words) [1],analgesic activity (in words) [2]
"CN(CCCc1nncn1-c1ccccc1)CCc1ccccc1 [N-methyl-4-phenyl-N-(2-phenylethyl)-4H-1,2,4-triazole-3-propanamine]",most effective,–
"Cc1nnc(/C=C/CN2CCN(c3ccccc3)CC2)n1-c1ccccc1 [Example 3, (E)-1-[3-(5-methyl-4-phenyl-4H-1,2,4-triazol-3-yl)-2-propenyl]-4-phenyl-piperazine]",most effective,–
Cc1nnc(C(C)(O)CCN(C)CCc2ccccc2)n1-c1ccccc1 (stereo not drawn) [Example 2],–,effective
